We go through nine compounds from ChEMBL document CHEMBL5241112, “Insights into the recent progress in the medicinal chemistry of pyranopyrimidine analogs” (RSC Med Chem, 2022).

Values after ≈ are worked out from the molar mass of the structure shown.

What is called GI50 is the concentration that inhibits growth by half. One may read the TGI as how far tumour growth fell short of that in controls. What is called IC50 is the concentration that inhibits the measured activity by half. What is called Emax is the size of the effect at its maximum, as opposed to the concentration needed. In general, MIC refers to the least concentration at which growth counts as inhibited.

Assay [1] in a line: Antioxidant activity assessed as DPPH radical scavenging activity at 25 ug/ml incubated for 30 mins by spectrophotometric analysis. Format: functional. To be noted: dose 25.0 µg/ml. A general note: DPPH is a stable violet radical that fades when it is reduced.
Assay [2] in a line: Antioxidant activity assessed as DPPH radical scavenging activity at 50 ug/ml incubated for 30 mins by spectrophotometric analysis. The following applies: dose 50.0 µg/ml. The class given is functional.
Assay [3] deals with PC-3. As to the kind of experiment: Anticancer activity against human PC-3 cells assessed as cell growth inhibition by sulforhodamine B assay. The class given is functional. A general note: In SRB staining, fixed cells bind dye roughly in proportion to their protein.
Assay [4] deals with PC-3. As to the kind of experiment: Anticancer activity against human PC-3 cells assessed as tumor growth inhibition by sulforhodamine B assay. Format: functional.
The subject of assay [5] is MDA-MB-435. The assay can be described thus: Anticancer activity against human MDA-MB-435 cells assessed as tumor growth inhibition by sulforhodamine B assay. Format: functional.
The subject of assay [6] is PC-3. As to the kind of experiment: Anticancer activity against human PC-3 cells assessed as lethality by sulforhodamine B assay. Format: functional. The following applies: read-out: LC50 (the source's name).
For assay [7], the system named is OVCAR-3. The assay can be described thus: Anticancer activity against human OVCAR-3 cells assessed as tumor growth inhibition by sulforhodamine B assay. Format: functional.
For assay [8], the system named is MDA-MB-435. The assay can be described thus: Anticancer activity against human MDA-MB-435 cells assessed as lethality by sulforhodamine B assay. To be noted: read-out: LC50 (the source's name). Format: functional.
For assay [9], the system named is OVCAR-3. The assay can be described thus: Anticancer activity against human OVCAR-3 cells assessed as cell growth inhibition by sulforhodamine B assay. The class given is functional.
Assay [10] deals with OVCAR-3. The assay can be described thus: Anticancer activity against human OVCAR-3 cells assessed as lethality by sulforhodamine B assay. The class given is functional. The following applies: read-out: LC50 (the source's name).
Assay [11] relates to MCF7. The assay can be described thus: cells. The following applies: Homo sapiens, MCF7, 48 h.
The next assay relates to HeLa. The assay can be described thus: Anticancer activity against human HeLa cells assessed as reduction in cell viability incubated for 48 hrs by MTT assay. The class given is functional, cell-based.
Assay [12] concerns MDA-MB-435. The assay can be described thus: Anticancer activity against human MDA-MB-435 cells assessed as cell growth inhibition by sulforhodamine B assay. The class given is functional.
Assay [13] has as its target Hydroxycarboxylic acid receptor 2 (Homo sapiens, UniProt Q8TDS4). The assay can be described thus: Agonist activity at human HCA2 expressed in human Flp-In-293 cells assessed as inhibition of forskolin-stimulated cAMP accumulation at 50 uM incubated for 30 mins by Lance cAMP assay. To be noted: filed as agonist. The class given is cell-based.
The nature of assay [14]: Antioxidant activity assessed as DPPH radical scavenging activity at 100 ug/ml incubated for 30 mins by spectrophotometric analysis. Format: functional. The following applies: dose 100.0 µg/ml.
Assay [15] in a line: Antioxidant activity assessed as DPPH radical scavenging activity at 75 ug/ml incubated for 30 mins by spectrophotometric analysis. The class given is functional. The following applies: dose 75.0 µg/ml.
Assay [16] has as its system Aspergillus niger. The assay can be described thus: Antifungal activity against Aspergillus niger ATCC 6275 assessed as diameter of inhibition zone incubated for 7 days by disc diffusion assay. The class given is functional. To be noted: time 7 day. (In general: Agar diffusion results depend on both activity and mobility in agar.)
The test system of assay [17] is Aspergillus niger. The assay can be described thus: Antifungal activity against Aspergillus niger ATCC 6275 assessed as inhibition of […] growth incubated for 7 days by broth macrodilution method. Format: functional. To be noted: ATCC 6275, 168 h, time 7 day.
Assay [18] deals with Bacillus subtilis. The assay can be described thus: Antibacterial activity against Bacillus subtilis ATCC 6633 assessed as inhibition of bacterial growth incubated for 24 hrs by broth macrodilution method. The class given is functional.
The test system of assay [19] is MCF7. The assay can be described thus: Anticancer activity against human MCF7 cells assessed as reduction in cell viability. The class given is functional, cell-based.
For a further assay, the system named is HCT-116. As to the kind of experiment: cells. To be noted: Homo sapiens.
Another assay has as its system HepG2. As to the kind of experiment: Anticancer activity against human HepG2 cells assessed as reduction in cell viability. The class given is functional, cell-based.
The subject of assay [20] is Staphylococcus aureus. The assay can be described thus: Antibacterial activity against Staphylococcus aureus ATCC 25923 assessed as inhibition of bacterial growth incubated for 24 hrs by broth macrodilution method. The class given is functional.
The test system of assay [21] is Bacillus subtilis. The assay can be described thus: Antibacterial activity against Bacillus subtilis ATCC 6633 assessed as diameter of inhibition zone incubated for 24 hrs by disc diffusion assay. The class given is functional.
The test system of assay [22] is Staphylococcus aureus. As to the kind of experiment: Antibacterial activity against Staphylococcus aureus ATCC 25923 assessed as diameter of inhibition zone incubated for 24 hrs by disc diffusion assay. The class given is functional.

Sequence of Hydroxycarboxylic acid receptor 2 (Q8TDS4 whole entry): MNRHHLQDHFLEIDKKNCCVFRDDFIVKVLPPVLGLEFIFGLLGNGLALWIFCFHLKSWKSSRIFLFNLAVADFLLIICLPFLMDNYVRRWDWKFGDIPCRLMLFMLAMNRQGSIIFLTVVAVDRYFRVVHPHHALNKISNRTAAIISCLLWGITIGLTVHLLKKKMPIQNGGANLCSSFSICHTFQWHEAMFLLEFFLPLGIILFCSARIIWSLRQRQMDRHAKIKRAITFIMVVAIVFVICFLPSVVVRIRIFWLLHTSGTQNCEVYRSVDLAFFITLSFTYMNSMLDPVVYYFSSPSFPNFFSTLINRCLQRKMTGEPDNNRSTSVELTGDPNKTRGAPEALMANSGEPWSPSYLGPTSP

Take `O=c1c(C2c3c(-c4ccccc4)n[nH]c3Oc3[nH]c(=S)n(-c4ccccc4)c(=S)c32)coc2ccccc12` (configuration not stated): the Activity in assay [1] stood at 61.6%; in [2] it was 66.4%.
`COc1cccc2c1C(=O)c1c(O)c3c(c(O)c1C2=O)C[C@@](O)(C(=O)CO)C[C@@H]3O[C@H]1C[C@H](N)[C@H](O)[C@H](C)O1.Cl` [DOXORUBICIN HYDROCHLORIDE]: the GI50 with PC-3 [3], in the assay on OVCAR-3 [9] and in the assay on MDA-MB-435 [12] was below 0.1 µM in each case. Further, the TGI is 76.7% with PC-3 [4], 5.5% in the assay with MDA-MB-435 [5] and 56.3% in the assay with OVCAR-3 [7]. Moreover, the CC50 with PC-3 [6] is above 100 µM; with MDA-MB-435 [8] it was 91.8 µM; with OVCAR-3 [10] it was above 100 µM. Further, the IC50 with MCF7 [11] and in the assay on HeLa was below 10 µM throughout.
Consider `NC(=O)CSc1nc(=O)c2c(CCCCCl)cc(=O)oc2[nH]1`, for which, in [13], the Emax was determined as 87%.
Take `O=c1c(C2c3c(-c4ccccc4)n[nH]c3Oc3[nH]c(=S)[nH]c(=S)c32)coc2ccccc12` (configuration not stated): the Activity was determined as 86.4% in [14], 66.5% in assay [2] and 84.3% in assay [15].
Take `NC(=O)C1=C(N)Oc2[nH]nc(-c3ccccc3)c2C1c1coc2ccccc2c1=O` (configuration not stated): the Activity in assay [1] is 62.5%.
With `C[C@@H]1[C@H](O)[C@@H](C)/C=C/C=C/C=C/C=C/C=C/C=C/C=C/[C@H](O[C@@H]2O[C@H](C)[C@@H](O)[C@H](N)[C@@H]2O)C[C@@H]2O[C@](O)(C[C@@H](O)C[C@@H](O)[C@H](O)CC[C@@H](O)C[C@@H](O)CC(=O)O[C@H]1C)C[C@H](O)[C@H]2C(=O)O` [AMPHOTERICIN B], the “diameter of the inhibition zone (DIZ)” value in the assay with Aspergillus niger [16] is 26.3 mm. In the assay with Aspergillus niger [17], the MIC was 0.781 µg/mL (≈ 0.845 µM).
For the compound `O=C(CSc1nc(=O)c2c(CCCCCl)cc(=O)oc2[nH]1)Oc1ccccc1`, in [13], the Emax stood at 85%.
As to `COc1ccc(C2c3c([nH]c(=O)[nH]c3=O)Oc3ncn(C(N)=O)c(=N)c32)cc1` (configuration not stated), the MIC in the assay on Bacillus subtilis [18] is 0.097 µg/mL (≈ 0.254 µM); in the assay on Staphylococcus aureus [20], 0.781 µg/mL (≈ 2.04 µM). The IC50 with MCF7 [19] was 2.43 µM; in the assay with HCT-116 it was 2.61 µM; with HepG2, 2.09 µM. The “diameter of the inhibition zone (DIZ)” value in the assay with Bacillus subtilis [21] amounted to 26 mm; in the assay with Staphylococcus aureus [22], 21.7 mm.
For `N#CC1=C(N)Oc2[nH]c(=O)[nH]c(=O)c2C1c1ccco1` (configuration not stated), the GI50 in the assay on PC-3 [3], in the assay with OVCAR-3 [9] and in the assay on MDA-MB-435 [12] was above 100 µM in each case. In addition, the values for the TGI in the assay on PC-3 [4], in the assay on MDA-MB-435 [5] and with OVCAR-3 [7] were 98.8%, above 100% and above 100%, respectively. The CC50 in the assay with PC-3 [6], in the assay on MDA-MB-435 [8] and in the assay with OVCAR-3 [10] was above 100 µM throughout.
